# Reference: patent USRE46907E1, “Suppression of cancer growth and metastasis using nordihydroguaiaretic acid derivatives with metabolic modulators” (THE JOHNS HOPKINS UNIVERSITY, priority 2008, dated 2018)
# Peptide text beside a SMILES is read from it. * marks the point of attachment. Cbz = O=C(OCc1ccccc1)*; CH2F = FC*
# Assays:
# HIF [1] = test: Western blotting of HIF in 67NR cells; format: cell-based, mouse; details: 5 hrs
# Experimental: (§1) Western blotting: After cells had been grown in 25 mm^2 flasks and treated with reagents, the cells were washed with PBS (−) three times and suspended in RIP A buffer (150 mM NaCl, 50 mM Tris-HCl (pH 8,0), 0.1% SDS, 1% NP40, and 0.5% deoxycholate) supplemented with protease inhibitor cocktail (Calbiochem, San Diego, Calif.). The sample volumes were adjusted by the total protein amount. Protein assay was performed by Bio-Rad Protein Assay (Bio-Rad Laboratories, Inc. Hercules, Calif.). The samples were resolved by the standard SDS-polyacrylamide gel electrophoresis and transferred to nitrocellulose membrane (Amersham Biosciences, Bjorkgatan, Sweden). The membranes were blocked with skim milk, and incubated with primary antibodies at 4° C. overnight and then with secondary antibody conjugated with horse radish peroxidase at room temperature for 2 hrs. The signals were detected by western blot chemiluminescence reagent plus (New England Nuclear Life Science Products, Boston, Mass.).
# 67NR cells [2] = test: TUNEL apoptosis assay in 67NR cells; format: cell-based, mouse
# Experimental: (§2) Cell Culture Either cell line 4T1 or 67NR was a gift from Dr. Miller (20). The cells were cultured in RPMI1640 medium supplemented with glucose (14 mM), pyruvate (1 mM), penicillin (100 units/ml), streptomycin (100 μg/ml), and fetal bovine serum (10%), buffered with 25 mM HEPES (pH 7.4). LNCaP human prostate cancer cell line was purchased from American Type Culture Collection (Manassas, Va.). The cell line was cultured in RPMI1640 medium supplemented with glucose (14 mM), pyruvate (1 mM), penicillin (100 units/ml), streptomycin (100 μg/ml), and fetal bovine serum (10%). Drugs were dissolved in dimethyl sulfoxide (DMSO) at a suitable concentration so that the final concentration of DMSO in the medium was less than 0.1%.
# (§3) Apoptosis assay: Simple TLTNEL assay was conducted by using TUNEL apoptosis detection kit (Upstate, Temecula, Calif.) with some modification. For the evaluation of the effect of PKCδ wild type and dominant negative vectors on TUNEL-positive cell death, we first transfected 4T1 or 67NR cells with these vectors by effectene (Qiagen, Valencia, Calif.). Wild type PKCδ vector is constructed from wild type PKCδ gene and pEGFP (Promega, Madison, Wis.). Dominant negative PKCδ vector is constructed from PKCδ gene mutated at a 376th amino acid residue (threonine) and pEGFP (Promega, Madison, Wis.) This threonine residue is located in ATP-binding domain of protein kinase Cδ, and therefore essential for any kinase reaction of the protein so that this mutant protein supposedly function as dominant negative. As a control we used pEGFP-N3 vector was used. These vectors contain green fluorescent protein (GFP) gene to be used as a transfection marker. The vectors are kind gifts from Dr. Yuspa (National Institutes of Health, Bethesda, Md.) (88). Twenty four hours after transfection, the cells were treated with M4N, Rottlerin, or Ly294002. Then 24 hrs after this treatment with these reagents, the cells were fixed with 10% formaldehyde in phosphate buffered saline without calcium and magnesium (PBS (−)). The cells were then incubated with rabbit anti-GFP antibody (MBL International, Woburn, Mass.) followed by treatment with anti-rabbit IgG antibody conjugated with fluorescein (Promega, Madison, Wis.). TUNEL staining was conducted by using TUNEL apoptosis detection kit (Upstate, Temecula, Calif.) except for using Streptavidin-Alexa Fluor 568 (Molecular Probes, Eugene, Oreg.) instead of Avidine-Rhodamine contained in the kit. Cell death was evaluated by dividing the number of TUNEL-positive cells among the cells positive with anti-GFP staining by the number of these GFP-positive cells.
# PKCδ [3] = test: Immunocytochemistry of PKCδ cellular localization in 4T1 cells; format: cell-based, mouse; details: 4T1, 5 hrs; for nuclear staining for phosphor-PKCδ (Thr505): without Desferoxamine co-treatment
# Experimental: (§4) Immunocytocheimstry: Cells were cultured on glass cover slips coated with poly-L-ornithine (Sigma, Saint Louis, Mo.). At 5 hrs after treatment with drugs, the cells were fixed with 10% formaldehyde in diluted in PBS (−) and washed with PBS (−) three times. After permeabilized by 0.2% Tryton X-100 and 1% goat serum diluted in PBS (−), the cells were blocked by PBS (−) containing 5% goat serum. The cells were then incubated with primary antibodies diluted in PBS (−) containing 0.5% bovine serum albumin (BSA), and with secondary antibodies, which is either anti-IgG conjugated with fluorescein (Vector Laboratories. Burlingame, Calif.), diluted in PBS (−) containing 0.5% BSA. The cells were observed through Zeiss fluorescent microscope (Carl Zeiss, Thornwood, N.Y.).
# 4T1 cells [4] = test: TUNEL apoptosis assay in 4T1 cells; format: cell-based, mouse
# Experimental: as §2, §3
# [5] = test system: PDK-1/Akt pathway-related proteins; test: Western blotting of PDK-1/Akt pathway-related proteins in 4T1 cells; format: cell-based, mouse; details: 4T1, 5 hrs after treatment, M4N 80 μM, Desferoxamine 75 or 150 μM
# Experimental: as §1
# PKCδ [6] = test: Western blotting of total PKCδ and phosphor-PKCδ (Thr505) in 67NR cells; format: cell-based, mouse; details: 5 hrs, M4N 80 μM, Ro 5 μM, Ly 20 μM, Des 150 μM
# Experimental: as §1, with “The” for “Western blotting: After cells had been grown in 25 mm^2 flasks and treated with reagents, the cells were washed with PBS (−) three times and suspended in RIP A buffer (150 mM NaCl, 50 mM Tris-HCl (pH 8,0), 0.1% SDS, 1% NP40, and 0.5% deoxycholate) supplemented with protease inhibitor cocktail (Calbiochem, San Diego, Calif.). The”
# HIF [7] = test: Western blotting of HIF in 4T1 cells; format: cell-based, mouse; details: 4T1, 5 hrs
# Experimental: as §1
# PKCδ [8] = test: Western blotting of total PKCδ and phosphor-PKCδ (Thr505) in 4T1 cells; format: cell-based, mouse; details: 4T1, 5 hrs; M4N 80 μM, Ro 5 μM, Ly 20 μM, Des 150 μM
# Experimental: as §1, with “The” for “Western blotting: After cells had been grown in 25 mm^2 flasks and treated with reagents, the cells were washed with PBS (−) three times and suspended in RIP A buffer (150 mM NaCl, 50 mM Tris-HCl (pH 8,0), 0.1% SDS, 1% NP40, and 0.5% deoxycholate) supplemented with protease inhibitor cocktail (Calbiochem, San Diego, Calif.). The”
# [9] = test system: LNCaP human prostate cancer cells; format: cell-based; details: for effect on TUNEL-positive cell death induced by M4N: 24 hrs
# Experimental: as §2, §3
# LNCaP tumors = test: Nude mice orthotropically implanted with LNCaP tumors, about eight times tumor volume, treatment from day 3; format: in vivo, mouse
# Experimental: Surgical orthotropic implantation of LNCaP tumors: LNCaP cells were grown as described above. Cells growing subconfluently were collected and resuspended into the tissue culture medium without fetal bovine serum and antibiotics. After counting the number of the cells, the cell concentration was adjusted using the same medium. After 20 μl of the medium containing a selected number of cancer cells (about 5×10^7 cells) had been mixed together with the same volume of Matrigel (BD science, Bedford, Mass.), the combined solution was injected into the skin of nude mice. […] The tumor tissue extracted from the skin was excised into pieces of about 2 mm diameter. After nude mice were anesthetized by 2,2,2-Tribromoethanol (Aldrich Chemical Co. Inc., Milwaukee, Wis.), a small incision was made at the abdomen of each mouse and a tumor tissue piece was implanted in the neighbor of the prostate of each mouse. Eight days after the operation, the injection of drugs was initiated, and the drugs were injected intravenously every day for the indicated periods
# As in the previous experiment (FIGS. 9 to 13), in this study we administered M4N, Ly, Ro, Etoposide, or Rapamycin to mice intravenously using CPE (25/30) solvent system (87). […] However, in this experiment we implanted about eight times the volume of tumors as in the previous experiments to detect the difference of efficacy of various combination treatments much faster. We started to treat the mice with combination treatments three days after the implantation instead of eight days, considering that the tumor volume is already large at the time of implantation in this experiment. This allows less time for possible metastasis to the transplanted tumors in this experiment than in the previous one.
# 4T1 cells [10] = test: 4T1 tumor-bearing Balb/c mice (life-span, tumor size); format: in vivo, mouse; details: 5×10^4 cells, M4N 1 mg/shot, Rottlerin 100 μg/shot, three days a week from day 7
# Experimental: (§5) Animals: Female Balb/e mice were obtained from Charles River Laboratories (Wilmington, Mass.). M4N and Rottlerin were dissolved into a solvent, CPE (25/30) solvent system supplied by Erimos Pharmaceutical, L.L.C. (Raleigh, N.C.) and injected into mice either intravenously or intraperitoneally, T-cell deficient male nude mice (nu/nu) were obtained from Charles River Laboratories (Wilmington, Mass.). M4N and Ly294002 were dissolved into a solvent, CPE (25/30) solvent system supplied by Erimos Pharmaceutical, L.L.C. (Raleigh, N.C.) and injected into mice intravenously.
# (§6) Tumor inoculation: Either 4T1 or 67NR cells were grown as described above. Cells growing subconfluently were collected and resuspended into the tissue culture medium minus fetal bovine serum and antibiotics, After counting the number of the cells, the cell concentration was adjusted. Twenty μl of the solution containing a selected number of cancer cells (either 5×10^3 or 5×10^4 cells) was injected into each fat pad of a pair of mammary glands located close to lower limbs. Tumor size was measured by weighing tumors extracted from mouse cadavers.
# [11] = test system: LNCaP human prostate cancer cells; test: MTT cell growth assay in LNCaP cells; format: cell-based; details: 24 hrs, M4N 80 μM, Ro 5 μM, Ly 20 μM
# Experimental: as §2
# MTT assay: Cells were incubated in PBS (−) supplemented with 5% fetal calf serum and 0.5 mg/ml MTT, 3-(4,5-Dimethylthiazol-2-yl)-2,5-diphenyltetrazolium bromide (Sigma, Saint Louis, Mo.) for 2 hrs. After the incubation, the cells were dissolved in dimethyl sulfoxide and the color of the solutions was measured by a spectrophotometer at wavelengths of 540 and 690 nm. The values correlated with viable cell numbers were obtained by subtracting the optical density at 690 nm from that, at 540 nm.
# 67NR cells [12] = test: 67NR tumor-bearing Balb/c mice (life-span); format: in vivo, mouse; details: 5×10^4 cells, M4N 1 mg/shot, Rottlerin 100 μg/shot, three days a week from day 8
# Experimental: as §5, §6
# [13] = test system: mitochondrial membrane potential; test: Mitochondrial membrane potential; format: cell-based
# PKCδ [14] = test: Immunocytochemistry of PKCδ cellular localization in LNCaP cells; format: cell-based, human; details: 5 hrs
# Experimental: as §4
# caspase-9 = test: Western blotting of caspase-9 cleavage in 67NR cells; format: cell-based, mouse; details: 5 hrs, Rottlerin 5 μM, M4N 80 μM
# Experimental: as §1
# [15] = 26 hrs, with M4N 80 μM, Rottlerin 5 μM, Desferoxamine 150 μM
# [16] = 4T1, 24 hrs, with M4N 80 μM, Rottlerin 5 μM, Desferoxamine 150 μM
compound,measurement,setting,value
"CC(=O)N(O)CCCCCNC(=O)CCC(=O)N(O)CCCCCNC(=O)CCC(=O)N(O)CCCCCN.CS(=O)(=O)O [Desferoxamine, Desferoxamine mesylate]",HIF stabilization,HIF [1],induced HIF stabilization
same,effect on cell death induced by M4N,67NR cells [2]; [15],generally augmented cell death even more
same,effect on cell death induced by M4N,"67NR cells [2]; 48 hr, Desferoxamine 300 μM with M4N 80 μM",enhanced cell death induced by M4N
same,cellular distribution / nuclear staining of total PKCδ,PKCδ [3],did not modulate much nuclear staining
same,nuclear staining for phosphor-PKCδ (Thr505),PKCδ [3],only moderately increased nuclear staining
same,effect on cell death induced by M4N,4T1 cells [4]; [16],generally augmented cell death even more
same,effect on cell death induced by M4N,"4T1 cells [4]; 4T1, 48 hr, Desferoxamine 300 μM with M4N 80 μM",enhanced cell death induced by M4N
same,"expression of phosphorylated PDK (Ser241), Akt (Ser473), PRAS40 (Thr246), Raf (Ser259), MEK (Ser217/221)",[5],not much effect
same,amount of phosphorylated PKCδ at Thr505,PKCδ [6],induced phosphorylation
same,HIF stabilization,HIF [7],induced HIF stabilization
same,amount of phosphorylated PKCδ at Thr505,PKCδ [8],induced phosphorylation
"O=C([O-])C(Cl)Cl.[Na+] [Dichloroacetate, Sodium Dichloroacetate]",effect on TUNEL-positive cell death induced by M4N,[9],synergistically augmented TUNEL-positive cell death induced by M4N
COc1cc([C@@H]2c3cc4c(cc3[C@@H](O[C@@H]3O[C@@H]5CO[C@@H](C)O[C@H]5[C@H](O)[C@H]3O)[C@H]3COC(=O)[C@H]23)OCO4)cc(OC)c1O [Etoposide],mice with lung metastasis lesions,LNCaP tumors; combination groups at 80 days after tumor implantation,3 out of 5
same,time after implantation by which all mice died,"LNCaP tumors; mouse, in vivo",≤ 24 days
same,effect on TUNEL-positive cell death induced by M4N,[9],synergistically augmented TUNEL-positive cell death induced by M4N
O=c1c(-c2ccc(O)cc2)coc2cc(O)cc(O)c12 [Genistein],effect on TUNEL-positive cell death induced by M4N with either Ro or Ly,"4T1 cells [4]; 4T1, Genistein 50 μM, 28 hrs",significantly suppressed the cell death
CC(=O)c1c(O)c(C)c(O)c(Cc2c(O)c3c(c(C(=O)/C=C/c4ccccc4)c2O)OC(C)(C)C=C3)c1O [Rottlerin],life-span of 4T1-bearing mice,4T1 cells [10],didn't extend the life-span
same,cell growth (MTT),[11],suppressed cell growth to some extent
same,life-span of 67NR-bearing mice,67NR cells [12],didn't have much effect on the life-span
same,TUNEL-positive cell death with M4N in cells transfected with control vectors,"67NR cells [2]; 24 hrs, control vector",induced cell death synergistically with M4N
same,TUNEL-positive cell death,"67NR cells [2]; 26 hrs, M4N 80 μM, Rottlerin 5 μM, Ly294002 20 μM",Neither Ro nor Ly alone induced TUNEL-positive cell death
same,effect on cell death induced by M4N,67NR cells [2]; [15],enhanced to some extent cell death induced by M4N
same,cellular distribution / nuclear staining of total PKCδ,PKCδ [3],did not change much
same,nuclear staining for phosphor-PKCδ (Thr505),PKCδ [3],augmented staining
same,TUNEL-positive cell death,"4T1 cells [4]; 4T1, 24 hrs, M4N 80 μM, Rottlerin 5 μM, Ly294002 20 μM",Neither Ro nor Ly alone induced TUNEL-positive cell death
same,TUNEL-positive cell death with M4N in cells transfected with control vectors,"4T1 cells [4]; 4T1, 24 hrs, control vector",induced cell death synergistically with M4N
same,effect on cell death induced by M4N,4T1 cells [4]; [16],greatly enhanced cell death induced by M4N
same,depolarization of mitochondrial membrane potential,[13],depolarized mitochondrial membrane potential
same,expression and nuclear level of total PKCδ,PKCδ [14],"Neither M4N, Ro, nor Ly treatment caused any remarkable change"
same,nuclear expression of phosphor-PKCδ (Thr507),PKCδ [14],augmented
same,caspase-9 activation (cleavage),caspase-9,a small amount of caspase-9 is activated
same,amount of phosphorylated PKCδ at Thr505,PKCδ [6],induced phosphorylation
same,TUNEL-positive cell death,"[9]; 28 hrs, M4N 80 μM, Ro 5 μM, Ly 20 μM",has no effect
same,effect on cell death induced by M4N,"[9]; 28 hrs, with M4N 80 μM",synergistically augmented cell death induced by M4N
same,cell death with M4N over a broad range of concentrations,[9]; different concentrations of drugs,induced cell death synergistically
same,cytotoxicity alone,[9]; tissue culture,non-cytotoxic
same,amount of phosphorylated PKCδ at Thr505,PKCδ [8],induced phosphorylation
"COC(=O)C[C@H](NC(=O)[C@H](C)NC(=O)[C@@H](NC(=O)OCc1ccccc1)C(C)C)C(=O)CF [zVAD, zVAD-fmk] (Cbz-Val-Ala-Asp(OMe)-CH2F)",effect of pan-caspase inhibitor on drug-induced TUNEL-positive cell death,"67NR cells [2]; zVAD 50 μM, 42 hrs",didn't affect TUNEL-positive cell death
same,effect of pan-caspase inhibitor on drug-induced TUNEL-positive cell death,"4T1 cells [4]; 4T1, zVAD 50 μM added 30 minutes before other drugs",didn't affect TUNEL-positive cell death
